This note sets out measurements from PubChem BioAssay (NCI).

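Interpolation was linear, between the two tested concentrations surrounding the appropriate level; five concentrations were tested over 48 hours in 96-well plates. GI50 = concentration required for 50% inhibition of growth. Definition used: TGI = concentration required for complete inhibition of growth.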

One experiment has as its system A498 renal. The experiment can be described thus: NCI anticancer screen, dose series, 48 h.
In turn, `CCOC(=O)NC(=O)c1cn(CCCO)c(=O)[nH]c1=O` showed a TGI greater than 100 µM.
As for `CCN1c2ccccc2C(C(SC)S(=O)(=O)c2ccc(C)cc2)c2c1[nH]c(=O)n(C)c2=O` (stereo unspecified), the TGI was greater than 100 µM.
`Cc1cc(-c2ccc3nc(C4CCOCC4)n(CCOC(F)(F)F)c3c2)cn(C)c1=O` displayed a TGI of 3.03 µM.
`COc1cc(C2c3cc4c(cc3OC(C)(O)C2C)OCO4)cc(OC)c1OC` (stereo unspecified) displayed a TGI greater than 100 µM.
For `COc1ccc([C@H]2[C@@H](F)C(=O)N2c2cc(OC)c(OC)c(OC)c2)cc1F`, the GI50 is 0.847 µM and the TGI is 8.08 µM.
The matching figures for `CC(=O)[C@@]12O[C@@H]1CC1C3CCC4=CC(O)CCC4(C)C3CCC12C` (stereo partly specified): 2.04 µM and 59.1 µM.
As for `ClCc1cccc(Cn2cnc3ncnc(Cl)c32)c1`, the GI50 is 18.4 µM and the TGI came out at 35.9 µM.
The compound `Cn1c2ccccc2c2cc(-c3ccccc3)c3c(c21)C(=O)c1ccccc1C3=O` gave a TGI greater than 100 µM.
In the case of `O=C(Nc1ccc(Cl)cc1)c1cccc(NC2=C(Cl)C(=O)N(Cc3ccccc3)C2=O)c1`, the GI50 was 19.9 µM and the TGI amounted to 47.1 µM.
Take `CCOC(=O)CC(=O)ON(C)C(C)=O`: the TGI was greater than 100 µM.
Take `CCc1cc(Cc2cc(CC)c(NC(=O)C(=O)Cc3ccccn3)c(CC)c2Cl)c(Cl)c(CC)c1NC(=O)C(=O)Cc1ccccn1`: the TGI was greater than 100 µM.
Same read-out and setting: to `CC(C)OP(=O)(OC(C)C)C(=NCCN=C(NNc1ccc([N+](=O)[O-])cc1)P(=O)(OC(C)C)OC(C)C)NNc1ccc([N+](=O)[O-])cc1` belongs 60.3 µM; to `COC(OC)C(C)CC(=O)N(C)C` (stereo unspecified), greater than 100 µM; to `O=S1(=O)OCCOS(=O)(=O)C1Br`, greater than 100 µM.

A further experiment concerns NCI-H522 lung. The experiment can be described thus: NCI anticancer screen, dose series, 48 h.
`CCN1c2ccccc2C(C(SC)S(=O)(=O)c2ccc(C)cc2)c2c1[nH]c(=O)n(C)c2=O` (stereo unspecified) displayed a TGI greater than 100 µM.
Take `Cc1cc(-c2ccc3nc(C4CCOCC4)n(CCOC(F)(F)F)c3c2)cn(C)c1=O`: the GI50 is 0.244 µM and the TGI stood at 9.31 µM.
On to `COc1cc(/C=C2\CN(S(=O)(=O)c3ccccc3)C/C(=C\c3cc(CN4CCCC4)c(O)c(OC)c3)C2=O)cc(CN2CCCC2)c1O`, for which the GI50 is 0.318 µM and the TGI is 2.11 µM.
`COc1cc(C2c3cc4c(cc3OC(C)(O)C2C)OCO4)cc(OC)c1OC` (stereo unspecified) had a TGI of 1.19 µM.
For the compound `COc1ccc([C@H]2[C@@H](F)C(=O)N2c2cc(OC)c(OC)c(OC)c2)cc1F`, the GI50 is 0.0383 µM and the TGI is greater than 100 µM.
For `CCCCCCN(CCCCCC)C(=O)Cc1c2n(c3ccccc13)Cc1ccccc1-2`, the TGI was greater than 100 µM.
Turning to `CC(=O)[C@@]12O[C@@H]1CC1C3CCC4=CC(O)CCC4(C)C3CCC12C` (stereo partly specified), the GI50 was greater than 100 µM and the TGI is greater than 100 µM.
In turn, `Brc1ccccc1C1SCc2nc3ccccc3n21` (stereo unspecified) displayed a TGI of 33.9 µM.
With `ClCc1cccc(Cn2cnc3ncnc(Cl)c32)c1`, the GI50 was 6.19 µM and the TGI was 23.9 µM.
With `OCC#Cc1ccccc1C#Cc1ccccc1`, the GI50 is 24.1 µM and the TGI was determined as 69 µM.
Take `Cn1c2ccccc2c2cc(-c3ccccc3)c3c(c21)C(=O)c1ccccc1C3=O`: the TGI was 48.4 µM.
`CN(C)c1ccc(/C=C(\NC(=O)c2ccccc2)c2nc3ncncc3[nH]2)cc1` displayed a TGI greater than 100 µM.
With `CC1=CC(O)(c2ccc(-c3ccccc3Cl)cc2)OC1=O` (stereo unspecified), the TGI is greater than 100 µM.
On to `O=C(Nc1ccc(Cl)cc1)c1cccc(NC2=C(Cl)C(=O)N(Cc3ccccc3)C2=O)c1`, for which the GI50 is 7.09 µM and the TGI came to 29 µM.
On the same counts, the results for `CC[C@H](Nc1ncnc2nc[nH]c12)c1oc2ccccc2c(=O)c1-c1cccc(F)c1` are 19.7 µM and greater than 100 µM.
On to `CCOC(=O)CC(=O)ON(C)C(C)=O`, for which the TGI was greater than 100 µM.
In turn, `COc1cc(NCc2ccc3oc(=O)c(-c4ccccc4)nc3c2)cc(OC)c1OC` registered a TGI greater than 10 µM.
In the case of `O=S1(=O)OCCOS(=O)(=O)C1Br`, the TGI was greater than 100 µM.
Compound `C#CC1(O)CCC2C3CCc4cc(Oc5nc(F)nc(-c6c7ccccc7c7sc8ccccc8n67)n5)ccc4C3CC[C@@]21C` (stereo partly specified) gave a TGI of 43.7 µM.
Same read-out and setting: to `CC(=O)/C(=C\c1cccc([N+](=O)[O-])c1)C(=O)Nc1ccccc1C` belongs greater than 100 µM.
With `Clc1ccc(C(c2ccc(Cl)cc2)c2ccccn2)cc1`, the TGI is 48.6 µM.
For `O=c1cc(-c2ccccc2)oc2cc(OCCCOc3ccc4c(=O)cc(-c5ccccc5)oc4c3)ccc12`, the TGI is greater than 100 µM.

The subject of another experiment is RXF 393 renal. The experiment can be described thus: NCI anticancer screen, dose series, 48 h.
On to `Cc1cc(-c2ccc3nc(C4CCOCC4)n(CCOC(F)(F)F)c3c2)cn(C)c1=O`, for which the GI50 is 0.885 µM and the TGI turned out to be 6.34 µM.
For the compound `COc1cc(/C=C2\CN(S(=O)(=O)c3ccccc3)C/C(=C\c3cc(CN4CCCC4)c(O)c(OC)c3)C2=O)cc(CN2CCCC2)c1O`, the GI50 is 1.27 µM and the TGI was determined as 2.8 µM.
Consider `COc1ccc([C@H]2[C@@H](F)C(=O)N2c2cc(OC)c(OC)c(OC)c2)cc1F`, for which the GI50 is 0.0398 µM and the TGI came out at 66 µM.
As to `CCCCCCN(CCCCCC)C(=O)Cc1c2n(c3ccccc13)Cc1ccccc1-2`, the TGI is greater than 100 µM.
Take `CC(=O)[C@@]12O[C@@H]1CC1C3CCC4=CC(O)CCC4(C)C3CCC12C` (stereo partly specified): the GI50 was 28.6 µM and the TGI turned out to be 65.6 µM.
For `Brc1ccccc1C1SCc2nc3ccccc3n21` (stereo unspecified), the TGI stood at 23.3 µM.
Turning to `ClCc1cccc(Cn2cnc3ncnc(Cl)c32)c1`, the GI50 was 2.02 µM and the TGI came to 17.4 µM.
As to `CN(C)c1ccc(/C=C(\NC(=O)c2ccccc2)c2nc3ncncc3[nH]2)cc1`, the TGI was greater than 100 µM.
Same read-out and setting: to `CC1=CC(O)(c2ccc(-c3ccccc3Cl)cc2)OC1=O` (stereo unspecified) belongs greater than 100 µM.
As to `CC[C@H](Nc1ncnc2nc[nH]c12)c1oc2ccccc2c(=O)c1-c1cccc(F)c1`, the GI50 was 13.2 µM and the TGI is 78.2 µM.
Turning to `COc1cc(NCc2ccc3oc(=O)c(-c4ccccc4)nc3c2)cc(OC)c1OC`, the TGI was greater than 10 µM.
Consider `CC(=O)/C(=C\c1cccc([N+](=O)[O-])c1)C(=O)Nc1ccccc1C`, for which the TGI is greater than 100 µM.
